The source made the active and inactive calls. No cut-off for these calls is given here.
How the values were obtained:
[1] = AUC in rat at 15 mg/kg, ip measured after 8 hrs; assay type: ADME, organism-based; design: dose 15 mg/kg, time 8 hrs, route ip; conditions: in vivo
[2] = Toxicity in BALB/c mouse assessed as body weight loss at 40 mg/kg, ip administered daily for 12 days measured once every 3 days; assay type: organism-based; conditions: in vivo, 288 h, time 12 day
[3] = Cmax in rat at 15 mg/kg, ip measured after 8 hrs; assay type: ADME, organism-based; design: time 8 hrs, dose 15 mg/kg, route ip; conditions: in vivo
[4] = target: T1, Protein cereblon/Heat shock protein HSP 90-alpha/Heat shock protein HSP 90-beta (Homo sapiens, UniProt P07900+P08238+Q96SW2); experiment: Protac activity at CRBN/HSP90 in human MCF7 cells assessed as reduction in HSP90 mRNA expression level at 2 uM followed by cycloheximide addition measured upto 12 hrs by qRT-PCR analysis; assay type: cell-based
T1 sequence (P08238 whole entry, other chains not shown): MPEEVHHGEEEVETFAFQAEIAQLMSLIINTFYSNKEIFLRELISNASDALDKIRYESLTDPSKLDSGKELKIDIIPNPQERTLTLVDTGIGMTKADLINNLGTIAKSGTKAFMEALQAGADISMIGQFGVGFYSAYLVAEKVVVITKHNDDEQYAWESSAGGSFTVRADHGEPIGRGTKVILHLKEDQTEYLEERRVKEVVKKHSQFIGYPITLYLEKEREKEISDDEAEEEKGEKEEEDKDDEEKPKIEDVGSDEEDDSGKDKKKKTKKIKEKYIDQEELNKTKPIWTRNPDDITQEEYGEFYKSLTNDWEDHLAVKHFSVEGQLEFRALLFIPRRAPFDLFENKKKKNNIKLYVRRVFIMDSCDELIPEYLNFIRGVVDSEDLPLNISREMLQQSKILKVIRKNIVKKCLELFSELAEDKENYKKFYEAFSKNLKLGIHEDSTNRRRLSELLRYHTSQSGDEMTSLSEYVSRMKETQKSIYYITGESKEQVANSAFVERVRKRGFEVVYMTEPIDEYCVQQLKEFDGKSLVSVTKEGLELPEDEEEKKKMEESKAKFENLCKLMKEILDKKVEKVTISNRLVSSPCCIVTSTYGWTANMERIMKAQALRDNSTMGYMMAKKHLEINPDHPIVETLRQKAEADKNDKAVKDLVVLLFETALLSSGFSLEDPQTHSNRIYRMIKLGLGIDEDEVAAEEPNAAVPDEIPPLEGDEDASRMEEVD
T1 sequence (Q96SW2 whole entry, other chains not shown): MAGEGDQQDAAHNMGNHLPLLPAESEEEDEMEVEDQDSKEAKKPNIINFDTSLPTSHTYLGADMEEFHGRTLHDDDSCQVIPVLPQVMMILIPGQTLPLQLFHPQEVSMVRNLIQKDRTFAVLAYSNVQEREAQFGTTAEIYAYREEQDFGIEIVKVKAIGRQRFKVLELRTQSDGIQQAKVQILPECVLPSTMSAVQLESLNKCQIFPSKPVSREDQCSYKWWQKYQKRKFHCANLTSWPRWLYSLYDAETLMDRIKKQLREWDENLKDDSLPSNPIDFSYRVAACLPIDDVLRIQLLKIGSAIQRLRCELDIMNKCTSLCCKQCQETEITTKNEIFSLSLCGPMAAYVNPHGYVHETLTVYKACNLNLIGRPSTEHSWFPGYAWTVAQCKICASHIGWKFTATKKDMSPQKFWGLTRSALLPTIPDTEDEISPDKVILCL

[5] = target: T1, Protein cereblon/Heat shock protein HSP 90-alpha/Heat shock protein HSP 90-beta; experiment: Protac activity at CRBN/HSP90 in human MCF7 cells assessed as reduction in AKT protein expression level at 2 uM measured after 6 hrs by western blot analysis; assay type: cell-based
[6] = target: T1, Protein cereblon/Heat shock protein HSP 90-alpha/Heat shock protein HSP 90-beta; experiment: Protac activity at CRBN/HSP90 in human MCF7 cells assessed as reduction in p53 protein expression level at 2 uM measured after 6 hrs by western blot analysis; assay type: cell-based
[7] = target: Heat shock protein HSP90 (Homo sapiens, UniProt P07900+P08238); experiment: Binding affinity to HSP90 (unknown origin) upto 250 uM by BLI assay; assay type: protein assay
[8] = tested on: MCF7; experiment: Anticancer activity against human MCF7 cells assessed as inhibition of colony formation at 2 to 10 uM measured after 48 hrs by crystal violet staining based assay; assay type: functional, cell-based; conditions: dose 2-10 µM, DDE = dose-dependent effect
[9] = AUCinfinity in rat at 15 mg/kg, ip measured after 8 hrs; assay type: ADME, organism-based; design: dose 15 mg/kg, time 8 hrs, route ip; conditions: in vivo
[10] = tested on: 4T1; experiment: Antitumor activity against female BALB/c mouse xenografted with 4T1 cells assessed as reduction on tumor formation at 40 mg/kg, ip administered daily for 12 days; assay type: functional, organism-based; conditions: time 12.0 day
[11] = tested on: 4T1; experiment: Antitumor activity against female BALB/c mouse xenografted with 4T1 cells assessed as tumor growth inhibition at 40 mg/kg, ip administered daily for 12 days relative to control; assay type: functional; conditions: 4T1, 288 h, time 12 day, read-out: TGI
[12] = Toxicity in BALB/c mouse assessed as death at 40 mg/kg, ip administered daily for 12 days; assay type: organism-based; conditions: in vivo, 288 h, time 12 day
[13] = target: T1, Protein cereblon/Heat shock protein HSP 90-alpha/Heat shock protein HSP 90-beta; experiment: Protac activity at CRBN/HSP90 in human MCF7 cells assessed as reduction in HSP90 protein expression level at 2 uM measured after 6 hrs by western blot analysis; assay type: cell-based
[14] = Tmax in rat at 15 mg/kg, ip measured after 8 hrs; assay type: ADME, organism-based; conditions: in vivo
[15] = target: Heat shock protein HSP 90-alpha (Homo sapiens) (UniProt P07900); experiment: Degradation of HSP90alpha in human MCF7 cells at 2 uM measured after 6 hrs by western blot analysis; assay type: cell-based
[16] = tested on: MDA-MB-468; experiment: Anticancer activity against human MDA-MB-468 cells assessed as inhibition of cell proliferation measured after 72 hrs by MTT assay; assay type: functional, cell-based; conditions: MDA-MB-468, 72 h
[17] = tested on: MDA-MB-231; experiment: Antiproliferative activity against human MDA-MB-231 cells assessed as inhibition of cell proliferation incubated for 72 hrs by MTT assay; assay type: functional, cell-based; conditions: MDA-MB-231, 72 h
[18] = tested on: 4T1; experiment: Antitumor activity against female BALB/c mouse xenografted with 4T1 cells assessed as reduction on tumor weight at 40 mg/kg, ip administered daily for 12 days; assay type: functional, organism-based; conditions: time 12.0 day
[19] = tested on: 4T1; experiment: Anticancer activity against mouse 4T1 cells assessed as inhibition of cell proliferation measured after 72 hrs by MTT assay; assay type: functional, cell-based; conditions: 4T1, 72 h
[20] = Half life in rat at 15 mg/kg, ip measured after 8 hrs; assay type: ADME, organism-based; conditions: in vivo
[21] = tested on: MCF7; experiment: Antiproliferative activity against human MCF-7 cells assessed as inhibition of cell proliferation incubated for 72 hrs by MTT assay; assay type: functional, cell-based; conditions: MCF7, 72 h
[22] = target: T1, Protein cereblon/Heat shock protein HSP 90-alpha/Heat shock protein HSP 90-beta; experiment: Protac activity at CRBN/HSP90 in human MCF7 cells assessed as reduction in HSP90 protein expression level at 2 uM followed by cycloheximide addition measured upto 12 hrs by western blot analysis; assay type: cell-based
[23] = target: T1, Protein cereblon/Heat shock protein HSP 90-alpha/Heat shock protein HSP 90-beta; experiment: Protac activity at CRBN/HSP90 in human MCF7 cells assessed as HSP90 degradation measured after 6 hrs by western blot analysis; assay type: cell-based
[24] = target: T1, Protein cereblon/Heat shock protein HSP 90-alpha/Heat shock protein HSP 90-beta; experiment: Protac activity at CRBN/HSP90 in human MCF7 cells assessed as maximum degradation of HSP90 measured after 6 hrs by western blot analysis relative to control; assay type: cell-based
[25] = tested on: 4T1; experiment: Antitumor activity against female BALB/c mouse xenografted with 4T1 cells assessed as tumor growth inhibition at 60 mg/kg, ip administered daily for 12 days relative to control; assay type: functional; conditions: 4T1, 288 h, time 12 day, read-out: TGI

COc1c(C)cnc(Cn2cc(C#CCCNc3cccc4c3C(=O)N(C3CCC(=O)NC3=O)C4=O)c3c(Cl)nc(N)nc32)c1C (configuration not stated)
AUC [1]: 1360 ng·h/mL | Activity [2]: 19.7% | Cmax [3]: 260 ng/mL | Activity [4]: Active | Activity [5]: Active | Activity [6]: Active | Kd [7]: 1.18 10^-4M | Activity [8]: Dde | AUC [9]: 2080 ng·h/mL | Activity [10]: Active | inhibition in vivo at 40 mg/kg [11]: 76.4% | Activity [12]: Non-Toxic | Activity [13]: Active | Tmax [14]: 1.85 h | Activity [15]: Active | IC50 [16]: 2.95 µM | IC50 [17]: 3.53 µM | Activity [18]: Active | IC50 [19]: 0.61 µM | half-life [20]: 4.5 h | IC50 [21]: 0.63 µM | Activity [22]: Active | DC50 [23]: 0.99 µM | Emax [24]: 83.4%

COc1cc(C(=O)NCCCCC#Cc2cn(Cc3ncc(C)c(OC)c3C)c3nc(N)nc(Cl)c23)ccc1NC(=O)[C@@H]1N[C@@H](CC(C)(C)C)[C@](C#N)(c2ccc(Cl)cc2F)[C@H]1c1cccc(Cl)c1F
IC50 [17]: > 100 µM | IC50 [21]: > 100 µM

COc1cc(C(=O)NCCCC#Cc2cn(Cc3ncc(C)c(OC)c3C)c3nc(N)nc(Cl)c23)ccc1NC(=O)[C@@H]1N[C@@H](CC(C)(C)C)[C@](C#N)(c2ccc(Cl)cc2F)[C@H]1c1cccc(Cl)c1F
IC50 [17]: > 100 µM | IC50 [21]: 97.3 µM

COc1c(C)cnc(Cn2cc(C#CCCCCNc3cccc4c3C(=O)N(C3CCC(=O)NC3=O)C4=O)c3c(Cl)nc(N)nc32)c1C (configuration not stated)
IC50 [17]: 2.2 µM | IC50 [21]: 0.25 µM

COc1c(C)cnc(Cn2cc(C#CCOCCOCCOCCOCCNc3cccc4c3C(=O)N(C3CCC(=O)NC3=O)C4=O)c3c(Cl)nc(N)nc32)c1C (configuration not stated)
IC50 [17]: 9.48 µM | IC50 [21]: 6.12 µM

COc1c(C)cnc(Cn2cc(C#CCCCNc3cccc4c3C(=O)N(C3CCC(=O)NC3=O)C4=O)c3c(Cl)nc(N)nc32)c1C (configuration not stated)
IC50 [17]: 5.2 µM | IC50 [21]: 1.45 µM

COc1c(C)cnc(Cn2cc(C#CCOCCOCCOCCOCCOCCOCCNc3cccc4c3C(=O)N(C3CCC(=O)NC3=O)C4=O)c3c(Cl)nc(N)nc32)c1C (configuration not stated)
IC50 [17]: 3.88 µM | IC50 [21]: 3.14 µM

COc1cc(C(=O)NCCOCCOCC#Cc2cn(Cc3ncc(C)c(OC)c3C)c3nc(N)nc(Cl)c23)ccc1NC(=O)[C@@H]1N[C@@H](CC(C)(C)C)[C@](C#N)(c2ccc(Cl)cc2F)[C@H]1c1cccc(Cl)c1F
IC50 [17]: 72.1 µM | IC50 [21]: 32.9 µM

COc1cc(C(=O)NCCOCC#Cc2cn(Cc3ncc(C)c(OC)c3C)c3nc(N)nc(Cl)c23)ccc1NC(=O)[C@@H]1N[C@@H](CC(C)(C)C)[C@](C#N)(c2ccc(Cl)cc2F)[C@H]1c1cccc(Cl)c1F
IC50 [17]: 65.9 µM | IC50 [21]: 71.7 µM

COc1c(C)cnc(Cn2cc(C#CCCNc3cccc4c3C(=O)N(C3CCC(=O)N(C)C3=O)C4=O)c3c(Cl)nc(N)nc32)c1C (configuration not stated)
IC50 [17]: 7.77 µM | IC50 [21]: 2.46 µM

COc1c(C)cnc(Cn2cnc3c(Cl)nc(N)nc32)c1C [BIIB021]
Activity [8]: Dde | IC50 [16]: 2.52 µM | inhibition in vivo at 60 mg/kg [25]: 31.8% | IC50 [17]: 7.72 µM | IC50 [19]: 0.55 µM | IC50 [21]: 1.12 µM

COc1c(C)cnc(Cn2cc(C#CCOCCNc3cccc4c3C(=O)N(C3CCC(=O)NC3=O)C4=O)c3c(Cl)nc(N)nc32)c1C (configuration not stated)
IC50 [17]: 0.44 µM | IC50 [21]: 0.19 µM

COc1c(C)cnc(Cn2cc(C#CCNc3cccc4c3C(=O)N(C3CCC(=O)NC3=O)C4=O)c3c(Cl)nc(N)nc32)c1C (configuration not stated)
IC50 [17]: 20.6 µM | IC50 [21]: 1.98 µM

COc1cc(C(=O)NCCOCCOCCOCC#Cc2cn(Cc3ncc(C)c(OC)c3C)c3nc(N)nc(Cl)c23)ccc1NC(=O)[C@@H]1N[C@@H](CC(C)(C)C)[C@](C#N)(c2ccc(Cl)cc2F)[C@H]1c1cccc(Cl)c1F
IC50 [17]: > 100 µM | IC50 [21]: > 100 µM

COc1cc(C(=O)NCCOCCOCCOCCOCCOCC#Cc2cn(Cc3ncc(C)c(OC)c3C)c3nc(N)nc(Cl)c23)ccc1NC(=O)[C@@H]1N[C@@H](CC(C)(C)C)[C@](C#N)(c2ccc(Cl)cc2F)[C@H]1c1cccc(Cl)c1F
IC50 [17]: > 100 µM | IC50 [21]: > 100 µM

Nc1cccc2c1C(=O)N(C1CCC(=O)NC1=O)C2=O (configuration not stated) [POMALIDOMIDE]
IC50 [17]: > 100 µM | IC50 [21]: > 100 µM

COc1cc(C(=O)NCCC#Cc2cn(Cc3ncc(C)c(OC)c3C)c3nc(N)nc(Cl)c23)ccc1NC(=O)[C@@H]1N[C@@H](CC(C)(C)C)[C@](C#N)(c2ccc(Cl)cc2F)[C@H]1c1cccc(Cl)c1F
IC50 [17]: > 100 µM | IC50 [21]: 37.9 µM

COc1c(C)cnc(Cn2cc(C#CCOCCOCCOCCNc3cccc4c3C(=O)N(C3CCC(=O)NC3=O)C4=O)c3c(Cl)nc(N)nc32)c1C (configuration not stated)
IC50 [17]: 4.85 µM | IC50 [21]: 2.24 µM

COc1cc(C(=O)NCCOCCOCCOCCOCC#Cc2cn(Cc3ncc(C)c(OC)c3C)c3nc(N)nc(Cl)c23)ccc1NC(=O)[C@@H]1N[C@@H](CC(C)(C)C)[C@](C#N)(c2ccc(Cl)cc2F)[C@H]1c1cccc(Cl)c1F
IC50 [17]: > 100 µM | IC50 [21]: > 100 µM

COc1c(C)cnc(Cn2cc(C#CCOCCOCCOCCOCCOCCNc3cccc4c3C(=O)N(C3CCC(=O)NC3=O)C4=O)c3c(Cl)nc(N)nc32)c1C (configuration not stated)
IC50 [17]: 3.87 µM | IC50 [21]: 5.63 µM

COc1c(C)cnc(Cn2cc(C#CCOCCOCCNc3cccc4c3C(=O)N(C3CCC(=O)NC3=O)C4=O)c3c(Cl)nc(N)nc32)c1C (configuration not stated)
IC50 [17]: 0.76 µM | IC50 [21]: 0.98 µM

COc1cc(C(=O)NCC#Cc2cn(Cc3ncc(C)c(OC)c3C)c3nc(N)nc(Cl)c23)ccc1NC(=O)[C@@H]1N[C@@H](CC(C)(C)C)[C@](C#N)(c2ccc(Cl)cc2F)[C@H]1c1cccc(Cl)c1F
IC50 [17]: > 100 µM | IC50 [21]: 20.9 µM

COc1cc(C(=O)NCCOCCOCCOCCOCCOCCOCC#Cc2cn(Cc3ncc(C)c(OC)c3C)c3nc(N)nc(Cl)c23)ccc1NC(=O)[C@@H]1N[C@@H](CC(C)(C)C)[C@](C#N)(c2ccc(Cl)cc2F)[C@H]1c1cccc(Cl)c1F
IC50 [17]: > 100 µM | IC50 [21]: > 100 µM

— ChEMBL document CHEMBL5154662, “Discovery of BP3 as an efficacious proteolysis targeting chimera (PROTAC) degrader of HSP90 for treating breast cancer” (Eur J Med Chem, 2022)
